The record followed here is patent US9328138B2 (priority 2011, dated 2016).

The target in assay [1] is T1, HCV genotype 1b (BK) NS3 modified enzyme with a R155K mutation (Hepatitis C virus genotype 1b, UniProt P26663, R1181K).
T1 construct: HCV genotype 1b (BK) NS3 modified enzyme
Description: HCV NS3 protease time-resolved fluorescence (TRF) assay, genotype 1b R155K. In kind it is biochemical. The settings on record: Ki 1b R155K. The essentials:
(§1)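 Inhibitor titrations are mixed with NS3/NS4A in pH 7.5 HEPES buffer containing 10 mM DTT and 15% glycerol for 10 min before substrate (25 nM final) is added. After 6 h at room temperature, delayed fluorescence is read and fitted to a four-parameter curve for IC50.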

Assay [2] deals with HCV NS3 protease genotype 3a (3A-1) (Hepatitis C virus genotype 3a, UniProt Q81258). In words: HCV NS3 protease time-resolved fluorescence (TRF) assay, genotype 3a. In kind it is biochemical. The settings on record: Ki 3a. The essentials:
as §1

The mark [3] stands for this setting: genotype 1b (BK) NS3 R155K, single value.
The mark [4] stands for this setting: first of two values printed in the cell (not explained).
[5] abbreviates: second of two values printed in the cell (not explained).

The structures appear in SMILES notation. Several values for one entry are separate records, joined by “and”; a condition that tells them apart may be missing. Equal values may be shown once. Where a name gives a salt, the structure may show the parent alone.

Turning to `C=C[C@@H]1C[C@]1(NC(=O)[C@@H]1C[C@@H]2CN1C(=O)[C@H](C(C)(C)C)NC(=O)O[C@@H]1CCC[C@H]1CCCCCc1c(nc3ccccc3c1OCCN(C)C)O2)C(=O)NS(=O)(=O)C1(CCN2CCOCC2)CC1` [Example 103, (3aR,7S,10S,12R,24aR)-7-tert-butyl-19-[2-(dimethylamino)ethoxy]-N-{(1R,2S)-2-ethenyl-1-[({1-[2-(morpholin-4-yl)ethyl]cyclopropyl}sulfonyl)carbamoyl]cyclopropyl}-5,8-dioxo-1,2,3,3a,5,6,7,8,11,12,20,21, 22,23,24,24a-hexadeca hydro-10H-9,12-methanocyclo-penta[18,19][1,10,3,6] dioxadiazacyclononadecino [11,12-b]quinoline-10-carboxamide], the Ki was 0.77 nM and 0.13 nM in assay [1] (setting [3]); 8.5 nM and 1.1 nM in assay [2].
`C=C[C@@H]1C[C@]1(NC(=O)[C@@H]1C[C@@H]2CN1C(=O)[C@H](C(C)(C)C)NC(=O)O[C@@H]1C[C@H]1CCCCCc1c(nc3ccccc3c1OCCNC1CC1)O2)C(=O)NS(=O)(=O)C1(C)CC1` [Example 178, (1aR,5S,8S,10R,22aR)-5-tert-butyl-17-[2-(cyclopropylamino)ethoxy]-N-[(1R,2S)-2-ethenyl-1-{[(1-methylcyclopropyl)sulfonyl]carbamoyl}cyclopropyl]-3,6-dioxo-1,1a,3,4,5,6,9,10, 18,19,20,21,22,22a-tetradeca hydro-8H-7,10-methanocyclopropa[18,19][1,10,3,6] dioxadiazacyclononadecino[11,12-b] quinoline-8-carboxamide]: the values for the Ki in assay [1] (setting [3]) and in assay [2] were 0.14 nM and 3.6 nM, respectively.
On the same counts, the results for `C=C[C@@H]1C[C@]1(NC(=O)[C@@H]1C[C@@H]2CN1C(=O)[C@H](C(C)(C)C)NC(=O)O[C@]1(C)C[C@H]1CCCCCc1c(nc3ccccc3c1OCCN1CCOCC1)O2)C(=O)NS(=O)(=O)C1(C)CC1` [Example 101, (1aR,5S,8S,10R,22aR)-5-tert-butyl-N-[(1R,2S)-2-ethenyl-1-{[(1-methylcyclopropyl)sulfonyl]carbamoyl}cyclopropyl]-1a-methyl-17-[2-(morpholin-4-yl)ethoxy]-3,6-dioxo-1,1,a, 3,4,5,6,9,10,18,19,20,21,22,22a-tetradecahydro-8H-7,10-methano-cyclopropa[18,19][1,10,3,6]dioxa diazacyclononadecino[11,12-b] quinoline-8-carboxamide] are 0.09 nM and 0.96 nM.
For `C=C[C@@H]1C[C@]1(NC(=O)[C@@H]1C[C@@H]2CN1C(=O)[C@H](C(C)(C)C)NC(=O)O[C@@H]1C[C@H]1CCCCCc1c(nc3ccccc3c1OCCCN1CCCC(F)C1)O2)C(=O)NS(=O)(=O)C1(C)CC1` (stereo partly drawn) [Example 158, (1aR,5S,8S,10R,22aR)-5-tert-butyl-N-[(1R,2S)-2-ethenyl-1-{[(1-methylcyclopropyl)sulfonyl]carbamoyl}cyclopropyl]-17-[3-(3-fluoropiperidin-1-yl)propoxy]-3,6-dioxo-1,1a,3,4,5,6,9,10,18,19, 20,21,22,22a-tetradecahydro-8H-7,10-methanocyclopropa[18,19][1,10,3,6] dioxadiazacyclononadecino[11,12-b] quinoline-8-carboxamide] the same measures were 0.19 nM and 2.6 nM.
`C=C[C@@H]1C[C@]1(NC(=O)[C@@H]1C[C@@H]2CN1C(=O)[C@H](C1CCCC1)NC(=O)O[C@@H]1CCC[C@H]1CC/C=C/Cc1c(nc3ccccc3c1OCCOC)O2)C(=O)NS(=O)(=O)C1CC1` [Example 46, (3aR,7S,10S,12R,21E,24aS)-7-cyclopentyl-N-{(1R,2S)-1-[(cyclopropylsulfonyl)carbamoyl]-2-ethenylcyclopropyl}-19-(2-methoxyethoxy)-5,8-dioxo-1,2,3,3a,5,6,7,8,11,12,20,23,24,24a-tetradecahydro-10H-9,12-methanocyclopenta[18,19][1,10,3,6] dioxadiazacyclononadecino[11,12-b] quinoline-10-carboxamide]: the Ki in assay [1] (setting [3]) is 0.15 nM; in assay [2], 4 nM.
On the same counts, the results for `C=C[C@@H]1C[C@]1(NC(=O)[C@@H]1C[C@@H]2CN1C(=O)[C@H](C(C)(C)C)NC(=O)O[C@@H]1CCC[C@H]1CCCCCc1c(nc3ccccc3c1OCCN1CCOCC1)O2)C(=O)NS(=O)(=O)N1CCC1` [Example 107, (3aR,7S,10S,12R,24aR)-N-{(1R,2S)-1-[(azetidin-1-ylsulfonyl)carbamoyl]-2-ethenylcyclopropyl}-7-tert-butyl-19-[2-(morpholin-4-yl)ethoxy]-5,8-dioxo-1,2,3,3a,5,6,7,8,11,12,20,21,22,23,24,24a-hexadecahydro-10H-9,12-methanycyclopenta [18,19][1,10,3,6]dioxadiazacyclo nonadecino[11,12-b]quinoline-10-carboxamide] are 0.74 nM and 23 nM.
For the compound `C=C[C@@H]1CC1(NC(=O)[C@@H]1C[C@@H]2CN1C(=O)[C@H](C1CCCCC1)NC(=O)O[C@@H]1C[C@H]1CCCCCc1c(nc3ccccc3c1OCCCN1CC(F)C1)O2)C(=O)NS(=O)(=O)C1(C)CC1` (some centres unmarked) [Example 250], the Ki was determined as 0.024 nM in assay [1] (setting [4]), 0.16 nM in assay [1] (setting [5]) and 4.45 nM in assay [2].
On to `C=C[C@@H]1C[C@]1(NC(=O)[C@@H]1C[C@@H]2CN1C(=O)[C@H](C1CCCC1)NC(=O)O[C@@H]1CCC[C@H]1CC/C=C/Cc1c(nc3ccccc3c1OCCCN1CCOCC1)O2)C(=O)NS(=O)(=O)C1CC1` [Example 87, (3aR,7S,10S,12R,21E,24aS)-7-cyclo pentyl-N-{(1R,2S)-1-[(cyclopropylsulfonyl)carbamoyl]-2-ethenylcyclopropyl}-19-[3-(morpholin-4-yl)propoxy]-5,8-dioxo-1,2,3,3a,5,6,7,8,11,12,20,23,24, 24a-tetradeca hydro-10H-9,12-methano cyclopenta[18,19][1,10,3,6] dioxadiazacyclononadecino [11,12-b]quinoline-10-carboxamide], for which the Ki in assay [1] (setting [3]) was found to be 0.24 nM; in assay [2], 3.2 nM.
Consider `C=C[C@@H]1C[C@]1(NC(=O)[C@@H]1C[C@@H]2CN1C(=O)[C@H](C1CCCCC1)NC(=O)O[C@@H]1C[C@H]1CCCCCc1c(nc3ccccc3c1OC1CCN(CC(F)(F)F)CC1)O2)C(=O)NS(=O)(=O)C1(C)CC1` [Example 236, 4-{[(1aR,5S,8S,10R,22aR)-5-cyclohexyl-8-{[(1R,2S)-2-ethenyl-1-{[(1-methylcyclopropyl)sulfonyl]carbamoyl}cyclopropyl]carbamoyl}-3,6-dioxo-1,1a,3,4,5,6,9,10,18,19,20,21,22,22a-tetradecahydro-8H-7,10-methanocyclopropa[18,19][1,10,3,6]dioxadiazacyclononadecino[11,12-b]quinolin-17-yl]oxy}-1-(2,2,2-trifluoroethyl)piperidinium formate], for which the Ki in assay [1] (setting [4]) turned out to be 0.33 nM; in assay [1] (setting [5]), 5.44 nM; in assay [2], 110 nM.
Take `C=C[C@@H]1C[C@]1(NC(=O)[C@@H]1C[C@@H]2CN1C(=O)[C@H](C(C)(C)C)NC(=O)O[C@@H]1C[C@H]1CCCCCc1c(nc3c(F)cccc3c1OCCN1CCC1)O2)C(=O)NS(=O)(=O)C1(C)CC1` [Example 212, (1aR,5S,8S,10R,22aR)-17-[2-(azetidin-1-yl)ethoxy]-5-tent-butyl-N-[(1R,2S)-2-ethenyl-1-{[(1-methylcyclopropyl)sulfonyl]carbamoyl}cyclopropyl]-13-fluoro-3,6-dioxo-1,1a,3,4,5,6,9,10,18,19,20,21,22,22a-tetradecahydro-8H-7,10-methanocyclopropa[18,19][1,10,3,6] dioxadiazacyclononadecino[11,12-b]quinoline-8-carboxamide]: the Ki came out at 0.22 nM in assay [1] (setting [3]) and 1.9 nM in assay [2].
On the same counts, the results for `C=C[C@@H]1C[C@]1(NC(=O)[C@@H]1C[C@@H]2CN1C(=O)[C@H](C1CCCC1)NC(=O)O[C@@H]1CCC[C@H]1CC/C=C/Cc1c(nc3ccccc3c1OC(=O)C(C)C)O2)C(=O)NS(=O)(=O)C1CC1` [Example 40, (3aR,7S,10S,12R,21E,24aS)-7-cyclopentyl-10-({(1R,2S)-1-[(cyclopropylsulfonyl)carbamoyl]-2-ethenylcyclopropyl}carbamoyl)-5,8-dioxo-1,2,3,3a,5,6,7,8,11,12,20,23,24,24a-tetradecahydro-10H-9,12-methanocyclopenta[18,19][1,10,3,6]dioxadiazacyclononadecino[11,12-b]quinolin-19-yl 2-methylpropanoate] are 1.3 nM and 27 nM.
On to `C=C[C@@H]1C[C@]1(NC(=O)[C@@H]1C[C@@H]2CN1C(=O)[C@H](C(C)(C)C)NC(=O)O[C@@H]1CCC[C@H]1CCCCCc1c(nc3ccccc3c1O)O2)C(=O)NS(=O)(=O)C1(C(=C)C)CC1` [Example 37, (3aR,7S,10S,12R,24aR)-7-tert-butyl-N-[(1R, 2S)-2-ethenyl-1-({[1-(prop-1-en-2-yl)cyclopropyl]sulfonyl}carbamoyl)cyclopropyl]-19-hydroxy-5,8-dioxo-1,2,3,3a,5,6,7,8,11,12,20, 21,22,23,24,24a-hexadecahydro-10H-9,12-methanocyclopenta[18,19][1,10,3,6] dioxadiazacyclononadecino[11,12-b]quinoline-10-carboxamide], for which the inhibition constant (Ki) in assay [1] (setting [3]) stood at 0.16 nM; in assay [2], 6 nM.

Broadly, the Ki is the equilibrium dissociation constant of an inhibitor or competing ligand from its target. High values mean a looser hold on the target, low ones a stronger hold on the target.
